The results in this text go back to patent US9089572B2, “Inhibitors of p97” (California Institute of Technology, priority 2008, dated 2015).

Where a SMILES comes first, the peptide text is derived from it. The star is where a group is joined. Cbz = O=C(OCc1ccccc1)*

The subject of assay [1] is HCT116 p53−/−. The assay can be described thus: MTT cell growth assay, HCT116 p53−/−. The conditions noted are these: Homo sapiens, HCT-116, 48 or 72 h, read-out: Cell line inhibition of growth GI50 HCT116 p53−/−. It is filed as cell-based. The procedure: (§1) To probe further the effect of compound 2 and related compounds 1, 3, 5, 6 and 7, various concentrations of these compounds were added to 13 different cell lines and incubated for 48 or 72 h. An MTT assay was then performed to evaluate cell growth and survival.
(In general: Tetrazolium assays rely on reduction of a dye to a coloured formazan, in cell work by metabolically active cells.)

The test system of assay [2] is RPMI8226. The assay is described as follows: MTT cell growth assay, RPMI8226. It is filed as cell-based. The conditions noted are these: Homo sapiens, RPMI-8226, 48 or 72 h, read-out: Cell line inhibition of growth GI50 RPMI8226. As to the method: as §1
The test system of assay [3] is PC3. The assay can be described thus: MTT cell growth assay, PC3. Format: cell-based. The conditions noted are these: Homo sapiens, PC-3, 48 or 72 h, read-out: Cell line inhibition of growth GI50 PC3. As to the method:
as §1

Assay [4] relates to LNCaP. The assay is described as follows: MTT cell growth assay, LNCaP. It is filed as cell-based. As to conditions: Homo sapiens, 48 or 72 h, read-out: Cell line inhibition of growth GI50 LNCaP. As to the method: as §1
Assay [5] deals with RL. The assay is described as follows: MTT cell growth assay, RL. Format: cell-based. The conditions noted are these: Homo sapiens, 48 or 72 h, read-out: Cell line inhibition of growth GI50 RL. The procedure:
as §1

Assay [6] relates to HTC116 WT. The assay can be described thus: MTT cell growth assay, HTC116 WT. Format: cell-based. As to conditions: 48 or 72 h, read-out: Cell line inhibition of growth GI50 HTC116 WT. As to the method:
as §1

Assay [7] concerns MCF7. The assay can be described thus: MTT cell growth assay, MCF7. Format: cell-based. As to conditions: Homo sapiens, 48 or 72 h, read-out: Cell line inhibition of growth GI50 MCF7. The procedure: as §1
Assay [8] relates to DU145. The assay can be described thus: MTT cell growth assay, DU145. It is filed as cell-based. The conditions noted are these: Homo sapiens, DU-145, 48 or 72 h, read-out: Cell line inhibition of growth GI50 DU145. As to the method:
as §1

In assay [9] the test system is HeLa. The assay is described as follows: MTT cell growth assay, HeLa. It is filed as cell-based. As to conditions: Homo sapiens, 48 or 72 h, read-out: Cell line inhibition of growth GI50 HeLa. The procedure:
as §1

For assay [10], the target named is wild type murine p97 (Mus musculus, UniProt Q01853). The assay is described as follows: In vitro ATP hydrolysis (malachite green ATPase assay), wild type murine p97. It is filed as biochemical. As to conditions: 200 nM p97, 20 min preincubation at 23° C., malachite green; read-out: In vitro ATP Hydrolysis Activity IC50 WT-mP97. The procedure:
(§2) Compounds were tested for their ability to inhibit the ATPase activity of purified wild type murine p97 and T532C-Cdc48, a mutant of yeast Cdc48 in which the residue analogous to cysteine 522, threonine 532, was converted to cysteine.

Assay [11] has as its system Molt4. The assay is described as follows: MTT cell growth assay, Molt4. It is filed as cell-based. As to conditions: Homo sapiens, MOLT-4, 48 or 72 h, read-out: Cell line inhibition of growth GI50 Molt4. As to the method:
as §1

Assay [12] addresses T532C-Cdc48 (Saccharomyces cerevisiae, UniProt P25694, T532C). The assay is described as follows: In vitro ATP hydrolysis (malachite green ATPase assay), T532C-Cdc48. Format: biochemical, yeast. The procedure:
as §2
To determine whether cysteine 522 is necessary for inhibition of p97 by compound 2, a mutant of p97 was constructed in which cysteine 522 was converted to either alanine (C522A-mp97) or threonine (C522T-mp97). The IC50 values of compound 2 were measured the against various enzymes during a 20-minute preincubation (see Table 2). Mutation of cysteine 522 in p97 to either alanine or threonine decreased sensitivity to compound 2 by greater than 100-fold. On the other hand, yeast Cdc48, which normally is quite resistant to compound 2, became nearly 30-fold more sensitive to the compound upon introduction of a cysteine in place of threonine 532.

Assay [13] relates to MDAMB-231. The assay can be described thus: MTT cell growth assay, MDAMB-231. It is filed as cell-based. The conditions noted are these: Homo sapiens, MDA-MB-231, 48 or 72 h, read-out: Cell line inhibition of growth GI50 MDAMB-231. The procedure: as §1
Assay [14] relates to CCRF-CEM. The assay is described as follows: MTT cell growth assay, CCRF-CEM. It is filed as cell-based. As to conditions: Homo sapiens, 48 or 72 h, read-out: Cell line inhibition of growth GI50 CCRF-CEM. The procedure: as §1
Assay [15] deals with Ub-G76V-GFP/HeLa cells. The assay can be described thus: Degradation of pre-accumulated Ub-G76V-GFP (cycloheximide chase after MG132 washout). The conditions noted are these: for % K: relative to 0 μM. Format: cell-based. The procedure: To evaluate this possibility, an assay was developed to determine the rate of degradation of pre-accumulated Ub-G76V-GFP molecules. […] Cells were then washed with PBS three times remove the MG132. Cells were then refreshed by adding DMEM containing cycloheximide (50 μg/mL; to block production of more Ub-G76V-GFP) and test compounds (0˜10 μM) were added into cells. Eight 96-well plates were prepared and one of the plates was imaged at 25, 50, 70, 100, 110, 125, 145, or 170 min after washing with PBS three times. After washing out MG132, degradation of pre-accumulated Ub-G76V-GFP appears to follow pseudo-first order reaction. Rate constant (K; 1/min) can be determined from the slope of plotting Ln (Fold Accumulation) versus Time (min) (see FIG. 17 and FIG. 18).
Ub-G76V-GFP/HeLa cells were treated with MG132 (2 μM) for 1 h and washed with PBS three times. DMEM containing cycloheximide (50 μg/mL) and compound 8 (0-10 μM) was added into cells. Eight 96-well plates were prepared and one of the plates was imaged at 25, 50, 70, 100, 110, 125, 145, or 170 min after washing with PBS three times.

Assay [16] has as its system HeLa cell line that stably expresses UbG76V-GFP. The assay can be described thus: Accumulation of UbG76V-GFP in HeLa cells (fluorescence microscopy). It is filed as cell-based. The conditions noted are these: fluorescence microscopy. As to the method:
As a control, the same cells were treated with the proteasome inhibitor MG132. In the latter set of experiments, a HeLa cell line that stably expresses UbG76V-GFP was transfected with either wild type (WT), D1 mutant (E305Q), D2 mutant (E578Q) or E305Q, E578Q double mutant (QQ) murine 97-pcDNA4.1 plasmid (0.05 μg/100 μL) in a 96-well plate. After 23 h, the intensity of UbG76V-GFP signal was measured on a Molecular Devices ImageXpress automated fluorescence microscope. […] The direct accumulation of Ub-G76V-GFP caused by compound 2 at 25 μM is 4-fold less than that caused by MG132 at 2 μM. This is likely due to the fact that only fully folded Ub-G76V-GFP should require p97 for degradation by the proteasome.
As a second test of whether compound 8 can inhibit p97 in vivo, it was evaluated whether it can cause accumulation of the UbG76V-GFP reporter. A HeLa cell line that stably expresses UbG76V-GFP was treated with compound 8 for 1 h at 37° C., and was then evaluated by fluorescence microscopy. As a control, the same cells were treated with the proteasome inhibitor MG132. […] The level of GFP fluorescence was quantified in cells treated with compound 8 at different doses and for different periods of time (FIG. 28).

For assay [17], the system named is MRC5-SV40. The assay is described as follows: CellTiter-Glo growth inhibition, MRC5 cells engineered to express SV40. It is filed as cell-based. A general note: ATP-based viability assays read luminescence as a measure of living cells.
In assay [18] the test system is MRC5-WT. The assay is described as follows: CellTiter-Glo growth inhibition, parental MRC5 cells. It is filed as cell-based. The conditions noted are these: Homo sapiens, 48 h at 37° C., read-out: Cell line inhibition of growth GI50 MRC5-WT.

Sequence of T532C-Cdc48 (P25694 whole entry T532C): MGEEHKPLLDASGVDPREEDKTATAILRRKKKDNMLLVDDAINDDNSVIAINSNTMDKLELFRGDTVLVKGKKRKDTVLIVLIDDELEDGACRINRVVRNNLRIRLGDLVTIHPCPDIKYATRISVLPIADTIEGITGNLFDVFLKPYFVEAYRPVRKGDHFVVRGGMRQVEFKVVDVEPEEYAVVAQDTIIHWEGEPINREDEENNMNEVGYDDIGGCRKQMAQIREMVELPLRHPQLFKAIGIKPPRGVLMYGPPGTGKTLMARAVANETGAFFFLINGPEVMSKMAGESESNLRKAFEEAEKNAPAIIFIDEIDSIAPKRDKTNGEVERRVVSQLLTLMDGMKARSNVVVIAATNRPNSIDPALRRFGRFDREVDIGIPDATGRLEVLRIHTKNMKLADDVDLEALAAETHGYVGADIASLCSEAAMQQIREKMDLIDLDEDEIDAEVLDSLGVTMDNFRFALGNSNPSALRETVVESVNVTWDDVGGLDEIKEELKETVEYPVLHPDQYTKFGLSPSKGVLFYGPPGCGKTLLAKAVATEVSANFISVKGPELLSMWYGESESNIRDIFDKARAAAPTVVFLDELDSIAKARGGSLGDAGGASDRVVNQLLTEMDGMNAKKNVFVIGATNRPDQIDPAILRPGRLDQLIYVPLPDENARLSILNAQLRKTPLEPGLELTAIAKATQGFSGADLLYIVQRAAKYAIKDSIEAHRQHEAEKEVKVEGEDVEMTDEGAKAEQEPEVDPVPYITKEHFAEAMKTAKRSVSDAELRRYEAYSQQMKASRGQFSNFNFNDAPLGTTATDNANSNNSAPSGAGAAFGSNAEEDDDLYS
Sequence of wild type murine p97 (Q01853 whole entry): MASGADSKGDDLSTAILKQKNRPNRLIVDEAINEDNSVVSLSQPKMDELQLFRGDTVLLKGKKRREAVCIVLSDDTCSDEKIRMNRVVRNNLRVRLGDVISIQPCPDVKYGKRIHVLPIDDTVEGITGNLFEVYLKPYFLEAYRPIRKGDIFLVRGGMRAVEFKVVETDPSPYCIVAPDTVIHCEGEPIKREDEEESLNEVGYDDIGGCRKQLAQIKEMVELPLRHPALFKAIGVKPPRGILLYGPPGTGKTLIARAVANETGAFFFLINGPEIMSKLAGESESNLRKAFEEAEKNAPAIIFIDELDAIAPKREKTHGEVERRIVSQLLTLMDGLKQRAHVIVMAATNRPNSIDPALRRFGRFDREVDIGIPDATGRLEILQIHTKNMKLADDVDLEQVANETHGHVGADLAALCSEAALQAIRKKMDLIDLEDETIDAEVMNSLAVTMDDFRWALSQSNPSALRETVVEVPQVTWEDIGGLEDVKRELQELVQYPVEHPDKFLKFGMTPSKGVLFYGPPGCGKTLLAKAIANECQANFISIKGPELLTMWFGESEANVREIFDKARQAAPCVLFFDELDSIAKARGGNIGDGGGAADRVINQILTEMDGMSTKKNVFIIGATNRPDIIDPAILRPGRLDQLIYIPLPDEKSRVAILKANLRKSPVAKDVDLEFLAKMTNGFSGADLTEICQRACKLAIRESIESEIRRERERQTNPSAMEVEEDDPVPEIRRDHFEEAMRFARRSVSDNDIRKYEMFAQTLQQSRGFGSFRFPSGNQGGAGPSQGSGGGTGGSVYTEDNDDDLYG

With `C=CC(=O)N(C(=O)C=C)c1ncnc2c1c(-c1ccc3ccccc3c1)nn2C(C)(C)C` [Compound 7], the GI50 in [1] is 13 ± 4 µM; in [2], 3.4 ± 1.7 µM; in assay [3], 6.2 ± 1.2 µM; in assay [4], 11 ± 4 µM; in assay [5], 1.4 ± 0.7 µM; in assay [6], 5.5 ± 1.4 µM. Also, the GI50 was determined as 3.6 ± 1 µM in assay [7]; 4.9 ± 0.6 µM in [8]; 1.8 ± 0.6 µM in assay [9]; 1.2 ± 0.5 µM in assay [11]; 21 ± 11 µM in [13]; 2.4 ± 1.1 µM in assay [14]. Besides, the IC50 (as a rule, the point on the concentration scale where inhibition reaches its midpoint) in assay [10] stood at 1.3 ± 0.7 µM; in assay [12], 22 ± 11 µM.

For `CC(C)C[C@@H](C=O)NC(=O)[C@H](CC(C)C)NC(=O)[C@H](CC(C)C)NC(=O)OCc1ccccc1` [MG132, reference compound] (Cbz-Leu-Leu-Leu-aldehyde), the “K, rate constant of Ub-G76V-GFP degradation” value in assay [15] (0.01 μM) is 0.0336 min⁻¹; in [15] (0.04 μM), 0.0322 min⁻¹; in assay [15] (0.16 μM), 0.0260 min⁻¹; in assay [15] (0.63 μM) it was 0.0095 min⁻¹; in assay [15] (2.5 μM) it was 0.0005 min⁻¹; in [15] (10 μM), 0.0009 min⁻¹. Besides, the “% K” value in [15] (0.01 μM) amounted to 88%; in assay [15] (0.04 μM) it was 84%; in assay [15] (0.16 μM), 68%; in [15] (0.63 μM) it was 25%; in assay [15] (2.5 μM), 1%; in assay [15] (10 μM), 2%. The IC50 in assay [15] (Homo sapiens, HeLa, 1 h, read-out: IC50 on the decay of Ub-G76V-GFP) was 0.24 ± 0.04 µM. The “accumulation of UbG76V-GFP” value in assay [16] (1 h at 37° C.) was “caused detectable accumulation of UbG76V-GFP”; in [16] (4 hours at 37° C.), “caused accumulation of UbG76V-GFP”.

As to `CC(C)(C)n1nc(-c2ccc3ccccc3c2)c2c(N)ncnc21` [Compound 5], the GI50 in [1] is 12 ± 3 µM; in assay [2] it was 9.8 ± 1.8 µM; in assay [3], 5.9 ± 0.5 µM; in [4], 7.6 ± 1.7 µM; in assay [5], 0.7 ± 0.2 µM; in assay [6], 4.3 ± 1.8 µM. Besides, the GI50 in assay [7] was 2.3 ± 0.4 µM; in assay [8], 3.5 ± 0.6 µM; in assay [9] it was 1 ± 0.3 µM; in assay [11] it was 0.6 ± 0.2 µM; in assay [13], 10 ± 1.8 µM; in assay [14], 3.9 ± 1.3 µM. The IC50 in assay [10] was greater than 100 µM.

On to `CC(C)C[C@H](NC(=O)[C@H](Cc1ccccc1)NC(=O)c1cnccn1)B(O)O` [Velcade, reference compound], for which the GI50 in assay [17] (Homo sapiens, MRC5, 48 h at 37° C., CellTiter-Glo, read-out: Cell line inhibition of growth GI50 MRC5-SV40) was 0.1 ± 0.01 µM; in assay [18] it was 0.2 ± 0.07 µM. Further, the “greater sensitivity of SV40-transformed cells than WT cell line” value in assay [17] (MRC5-SV40 vs MRC5-WT GI50) worked out at 2 fold.

As to `C=CC(=O)N(C(=O)C=C)c1ncnc2c1c(-c1ccccc1)nn2C(C)(C)C` [Compound 3], the GI50 is 4 ± 0.9 µM in [1]; 1.2 ± 0.6 µM in assay [2]; 3.3 ± 0.9 µM in assay [3]; 4.6 ± 1.1 µM in assay [4]; 5 ± 2 µM in assay [5]; 5.1 ± 2 µM in [6]. Further, the GI50 worked out at 6.6 ± 2.2 µM in [7]; 8.2 ± 2.4 µM in assay [8]; 5.3 ± 2.5 µM in [9]; 2.7 ± 0.8 µM in [11]; 24 ± 10 µM in assay [13]; 7.2 ± 4.3 µM in assay [14]. The values for the IC50 in [10] and in assay [12] were 1.1 ± 0.7 µM and 26 ± 6 µM, respectively.

For `CC(C)(C)n1nc(-c2ccccc2)c2c(NC(=O)CCl)ncnc21` [Compound 4], the GI50 in assay [1] worked out at 20 ± 5 µM; in assay [3] it was 6.3 ± 0.6 µM; in assay [4] it was 23 ± 4 µM; in [6], 19 ± 6 µM; in [8], 40 ± 10 µM. For the same compound, the IC50 was found to be 4.5 ± 3.5 µM in assay [10] and 35 ± 8 µM in assay [12].

As to `C=CC(=O)Nc1ncnc2c1c(-c1ccc3ccccc3c1)nn2C(C)(C)C` [Compound 6], the GI50 came out at 2.4 ± 1 µM in [1]; 1.2 ± 0.3 µM in [2]; 0.3 ± 0.23 µM in assay [3]; 2.5 ± 0.7 µM in assay [4]; 1.3 ± 0.4 µM in [5]; 2.8 ± 1.6 µM in assay [6]. Also, the GI50 in [7] was found to be 1.9 ± 0.4 µM; in assay [8], 2.3 ± 0.7 µM; in [9], 1.2 ± 0.2 µM; in [11], 0.7 ± 0.1 µM; in assay [13] it was 5.9 ± 2.6 µM; in assay [14], 1.3 ± 0.4 µM. In addition, the IC50 in [10] came out at 3 ± 1 µM; in assay [12] it was 24 ± 7 µM.
